From patent publication US4216206A (priority 1977, dated 1980)

Test system: mouse
Assay: acute toxicity in the mouse over 7 days
Type: in vivo
Conditions: i.v.
Protocol: The acute toxicities of the antibiotics were determined in the mouse over 7 days.

Thiostrepton
LD50: < 100 mg/kg
